Tests used:
Assay in all cases: NCI-60 one-dose SRB screening
Assay type in all cases: cell-based
786-0 = conditions: Homo sapiens, 786-0, Renal Cancer, 10 µM one dose, 48 h, read-out: growth percentage
A549/ATCC = conditions: Homo sapiens, Non-Small Cell Lung Cancer, 10 µM one dose, 48 h, read-out: growth percentage
BT-549 = conditions: Homo sapiens, BT-549, Breast Cancer, 10 µM one dose, 48 h, read-out: growth percentage
EKVX = conditions: Homo sapiens, Non-Small Cell Lung Cancer, 10 µM one dose, 48 h, read-out: growth percentage
HCC-2998 = conditions: Homo sapiens, HCC-2998, Colon Cancer, 10 µM one dose, 48 h, read-out: growth percentage
HOP-92 = conditions: Homo sapiens, HOP-92, Non-Small Cell Lung Cancer, 10 µM one dose, 48 h, read-out: growth percentage
IGROV1 = conditions: Homo sapiens, IGROV-1, IGROV1, Ovarian Cancer, 10 µM one dose, 48 h, read-out: growth percentage
M14 = conditions: Homo sapiens, M14, Melanoma, 10 µM one dose, 48 h, read-out: growth percentage
MDA-MB-435 = conditions: Homo sapiens, MDA-MB-435, Melanoma, 10 µM one dose, 48 h, read-out: growth percentage
MDA-MB-468 = conditions: Homo sapiens, MDA-MB-468, Breast Cancer, 10 µM one dose, 48 h, read-out: growth percentage
NCI-H23 = conditions: Homo sapiens, NCI-H23, Non-Small Cell Lung Cancer, 10 µM one dose, 48 h, read-out: growth percentage
NCI-H522 = conditions: Homo sapiens, NCI-H522, Non-Small Cell Lung Cancer, 10 µM one dose, 48 h, read-out: growth percentage
NCI/ADR-RES = conditions: Homo sapiens, Ovarian Cancer, 10 µM one dose, 48 h, read-out: growth percentage
OVCAR-4 = conditions: Homo sapiens, OVCAR-4, Ovarian Cancer, 10 µM one dose, 48 h, read-out: growth percentage
OVCAR-8 = conditions: Homo sapiens, OVCAR-8, Ovarian Cancer, 10 µM one dose, 48 h, read-out: growth percentage
RPMI-8226 = conditions: Homo sapiens, RPMI-8226, Leukemia, 10 µM one dose, 48 h, read-out: growth percentage
RXF 393 = conditions: Homo sapiens, RXF 393, Renal Cancer, 10 µM one dose, 48 h, read-out: growth percentage
SK-MEL-28 = conditions: Homo sapiens, SK-MEL-28, Melanoma, 10 µM one dose, 48 h, read-out: growth percentage
SK-MEL-2 = conditions: Homo sapiens, SK-MEL-2, Melanoma, 10 µM one dose, 48 h, read-out: growth percentage
SNB-19 = conditions: Homo sapiens, SNB-19, CNS Cancer, 10 µM one dose, 48 h, read-out: growth percentage
TK-10 = conditions: Homo sapiens, TK-10, Renal Cancer, 10 µM one dose, 48 h, read-out: growth percentage
UO-31 = conditions: Homo sapiens, UO-31, Renal Cancer, 10 µM one dose, 48 h, read-out: growth percentage

Cc1nn(-c2ccc(Br)cc2)c2nc(CNc3ccc(NCc4c(-c5ccccc5)no[n+]4[O-])cc3)[nH]c(=O)c12 [14c, 3-(((4-(((1-(4-bromophenyl)-3-methyl-4-oxo-4,5-dihydro-1H-pyrazolo[3,4-d]pyrimidin-6-yl)methyl)amino)phenyl)amino)methyl)-4-phenyl-1,2,5-oxadiazole 2-oxide]
activity at 10 µM (786-0): 119%
activity at 10 µM (A549/ATCC): 97.4%
activity at 10 µM (BT-549): 98.1%
activity at 10 µM (EKVX): 98.9%
activity at 10 µM (HCC-2998): 112%
activity at 10 µM (HOP-92): 108%
activity at 10 µM (IGROV1): 85.6%
activity at 10 µM (M14): 107%
activity at 10 µM (MDA-MB-435): 101%
activity at 10 µM (MDA-MB-468): 94.4%
activity at 10 µM (NCI-H23): 103%
activity at 10 µM (NCI-H522): 90.8%
activity at 10 µM (NCI/ADR-RES): 101%
activity at 10 µM (OVCAR-4): 127%
activity at 10 µM (OVCAR-8): 112%
activity at 10 µM (RPMI-8226): 112%
activity at 10 µM (RXF 393): 117%
activity at 10 µM (SK-MEL-28): 103%
activity at 10 µM (SK-MEL-2): 107%
activity at 10 µM (SNB-19): 102%
activity at 10 µM (TK-10): 132%
activity at 10 µM (UO-31): 83.4%

Nc1ccc(NCc2c(-c3ccccc3)no[n+]2[O-])cc1 [compound 11, 3-(((4-aminophenyl)amino)methyl)-4-phenyl-1,2,5-oxadiazole 2-oxide]
activity at 10 µM (786-0): 140%
activity at 10 µM (A549/ATCC): 95.1%
activity at 10 µM (BT-549): 103%
activity at 10 µM (EKVX): 109%
activity at 10 µM (HCC-2998): 118%
activity at 10 µM (HOP-92): 116%
activity at 10 µM (IGROV1): 88.7%
activity at 10 µM (M14): 102%
activity at 10 µM (MDA-MB-435): 90.2%
activity at 10 µM (MDA-MB-468): 85.3%
activity at 10 µM (NCI-H23): 105%
activity at 10 µM (NCI-H522): 93.5%
activity at 10 µM (NCI/ADR-RES): 104%
activity at 10 µM (OVCAR-4): 118%
activity at 10 µM (OVCAR-8): 131%
activity at 10 µM (RPMI-8226): 97.5%
activity at 10 µM (RXF 393): 134%
activity at 10 µM (SK-MEL-28): 101%
activity at 10 µM (SK-MEL-2): 105%
activity at 10 µM (SNB-19): 110%
activity at 10 µM (TK-10): 156%
activity at 10 µM (UO-31): 98.9%
